Measured values from patent EP4537820A1, “COMPOUND AND COMBINATIONS COMPRISING SAID COMPOUND TO IMPROVE IMMUNE RESPONSE” (Institut Gustave-Roussy, priority 2023, dated 2025).

Legend:
[1] = molecular target: 20S-REGy complex (Homo sapiens, UniProt P61289); assay: Peptide degradation assay with Fluorescamine (KH-52), with REGγ; assay type: biochemical; settings: 20S-REGγ complex, 50 µM compound, 37°C
Procedure: Degradation of the 52 amino acid peptide KH-52: […], Boulpicante et al.) by the 20S proteasome was followed by amino-acid group generation using Fluorescamine (#F9015, Sigma-Aldrich). The peptide substrate was incubated at 100µM with 25nM 20S, with or without 160nM REGγ and with different concentration of the tested compounds or DMSO. Assays were performed in 100µL in phosphate buffer (pH 6.8) and incubated at 37°C in a water bath for 8 hours. After 4, 6 and 8 hours, 22µL of sample were retrieved and added to 88µL of phosphate buffer before being stored at - 20°C prior to revelation. For the revelation, samples were thawed and filtered in a centrifuge 20min at 4°C 1kDa filters (#OD003C34, Pall Corporation). To avoid any amino group contamination, filtered were washed in phosphate buffer before use. 20µL of filtered-sample were plated in triplicates in a black 96-wells plate (#237108, Thermo Scientific) and 10µL of fluorescamine (1mg/mL, in 100% acetone) was added to the samples. The plate was placed on agitation for 1min before the reaction was stopped by adding 200µL of water to each well. The fluorescence intensity was measured using a FluoSTAR plate reader (BMG Labtech) with excitation wavelength at 355nm and emission wavelength at 460nm.
These findings were established through both in vitro degradation assays and T cell experiments. […]

[2] = system: OT-1 CD8+ T cells; assay: Co-culture of OT-1 cells with treated MCA205-Glob-SL8-intron cells, T cell activation by flow cytometry; assay type: cell-based, mouse
Procedure: MCA205-Glob-SL8-intron were plated at 1×10^5 cells in 12-well plates and incubated overnight. The next day, cells were treated with different concentrations of drugs for 24 hours. After treatment, cells were harvested with trypsin, washed twice with OT-1 Media (RPMI-1640, 10% FBS, 2mM L-glutamine, 50µM of 2-mercaptoéthanol, 100 IU/mL of Penicillin G, […]), and each condition was counted with a KOVA slide and Trypan-blue. For each tested condition 2×10^5 of treatedcells were plated in a 96-wells plate. The same day, lymph nodes from an OT1 mouse (C57B1/6J TCR-transgenic CD8^+ T cells specific for Kb -OVA257-264, obtained from Charles River #642OT1) were harvested. Lymph nodes were dissociated and filtered through a 40 µm filter and red blood cells were lysed with ACK buffer. 8×10^5 OT-1 cells were added to the MCA205-Glob-SL8-intron cells (E:T ratio of 4:1) and the plate was incubated overnight at 37°C. The next day, translocation to the golgi was blocked with brefeldin A (#420601, Biolegend) for 3h before cells were stained with Zombie Aqua (#423102, Biolegend) and antibodies described in Table 2, to measure T cell activation. Samples were acquired on a Cytek Aurora (Cytek Biosciences) spectral flow cytometer and data was analysed with FlowJo (V10) software (TreeStar, Inc.). Table 2: Panel of antibodies for the study of OT-1 CD8+ T-cells activation by MCA205-Glob-SL8-intron.
In their experiments, OT-1 cells were co-incubated with MCA205 cells expressing the globin-SL8-intron construct. To assess the production of antigenic peptide substrates, they measured OT-1 cell proliferation using FACS analysis. They analyzed the expression levels of early activation markers, CD69 and CD25, which are critical for the proliferation of activated T cells. For that purpose, MCA205 cells with the globin-SL8-intron construct were exposed to varying concentrations of compound 58 for 24 hours, followed by co-incubation with OT-1 cells.
Furthermore, inventors sought to characterize the activated OT-1 cell subset induced by this treatment. To do so, they examined the expression of CD44 and CD62L (L-selectin) markers, which delineate two major subsets of OT-1 CD8+ T cells following co-culture with MCA cells treated with compound 58: effector/memory (CD44^high/CD62L^low) and central memory (CD44^high/CD62L^high) CD8+ T cell subsets.
Inventors then evaluated the effector function of OT-1 cells post-co-culture with MCA cells treated with compound 58 by examining the expression of perforin.

[3] = MCA cells treated 24 hours, then co-culture with OT-1 cells

Chain of 20S-REGy complex (P61289 whole entry, one chain of several): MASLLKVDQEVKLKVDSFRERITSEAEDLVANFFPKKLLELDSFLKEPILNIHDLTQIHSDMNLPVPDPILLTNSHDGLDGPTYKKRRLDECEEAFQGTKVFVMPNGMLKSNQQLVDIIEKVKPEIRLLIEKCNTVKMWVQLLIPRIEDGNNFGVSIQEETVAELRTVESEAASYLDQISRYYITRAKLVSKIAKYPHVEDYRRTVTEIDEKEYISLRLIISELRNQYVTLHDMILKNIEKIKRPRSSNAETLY

Cc1ccc(N=Nc2ccc(C)cc2NC(=O)Nc2ccccc2F)cc1 [compound 58]
rate of peptide bond hydrolysis of KH-52 [1]: notably decelerated the rate of peptide bond hydrolysis
frequency of CD69+ CD25+ OT-1 T cells ([2]; MCA205 cells treated 24 hours, then co-incubation with OT-1 cells, compared to untreated cells): increased frequency
frequency of CD44^high/CD62L^low effector/memory cells [2, 3]: dose-dependent increase
frequency of central memory CD44^high/CD62L^high cells [2, 3]: remained unchanged
perforin expression of OT-1 cells [2, 3]: increased perforin expression
